Experimental findings from PubChem BioAssay AID623931 (Vanderbilt Specialized Chemistry Center, 2012) are described below.

One assay can be described thus: PubChem AID 623931. Conditions: Ricerca radioligand binding panel, % inhibition, at 10 µM, stronger effect = higher value.
The target of assay [1] is 5-hydroxytryptamine receptor 2B (Homo sapiens) (UniProt P41595). Description: PubChem AID 623931. The following applies: Ricerca radioligand binding panel, % inhibition; at 10 µM; stronger effect = higher value.

As a reminder, the inhibition is the drop in the measured response relative to a control, in per cent. On to `COc1ccc(C#Cc2ccc(C(=O)N3CCC[C@@H](CO)C3)cc2)cc1`, for which the inhibition is 21% in “PubChem AID 623931” (GABA-A muscimol site binding); 21% in the assay “PubChem AID 623931” (K-ATP channel binding); 44% in “PubChem AID 623931” (adenosine A3 receptor binding); 19% in the assay “PubChem AID 623931” (dopamine D3 receptor binding); 88% in “PubChem AID 623931” (dopamine transporter DAT binding); 13% in “PubChem AID 623931” (hERG potassium channel binding). Moreover, the inhibition in “PubChem AID 623931” (imidazoline I2 binding) amounted to 35%; in the assay “PubChem AID 623931” (norepinephrine transporter NET binding), 28%; in “PubChem AID 623931” (prostanoid EP4 receptor binding), 45%; in “PubChem AID 623931” (purinergic P2Y binding), 23%; in the assay “PubChem AID 623931” (serotonin transporter SERT binding) it was 50%; in “PubChem AID 623931” (sigma 1 receptor binding), 37%. Also, the inhibition in assay [1] came out at 71%.
